Usually kinetic solubility stands for solubility judged after dilution from a stock solution rather than from solid. A word on the inhibition: it is the drop in the measured response relative to a control, in per cent.

The record followed here is publication PMC2533354, “Highly specific inhibition of leukaemia virus membrane fusion by interaction of peptide antagonists with a conserved region of the coiled coil of envelope” (Retrovirology, 2008).

One data set concerns the target T1, BLV envelope (Bovine leukemia virus, UniProt P51519).
T1 construct: A fragment encompassing the entire BLV envelope open reading frame; expressed in transfected cells; host or cells: HeLa (co-transfected with pRSV-Rev)
As to the kind of experiment: Syncytium interference assay, BLV envelope-expressing HeLa effector cells. It counts as cell-based.

Data set [1] can be described thus: Relative peptide solubility by laser nephelometry. The class given is physicochemical. The settings on record: filtered PBS with 1.5 % DMSO, maximum solubility in aqueous solution, two-fold serial dilution from DMSO stock, 200 μl, 1 hr at room temperature, laser nephelometry (forward scattered light, NEPHELOstar), duplicate wells, in solution if reading up to 3-fold the DMSO control. How it is done:
A two-fold serial dilution of peptide in DMSO was performed, and added in duplicate to 96-well microplates. Filtered PBS was added to give a total volume of 200 μl and a final DMSO concentration of 1.5 % in all wells. The plates were incubated at room temperature for 1 hr and the relative solubility of peptides was established by measuring forward scattered light using a NEPHELOstar laser-based microplate nephelometer (BMG LABTECH). Wells containing PBS and 1.5 % DMSO only were used as blanks. Data analysis was carried out using ActivityBase, and peptides giving readings up to and including 3-fold higher than the average reading for the DMSO control were considered to be in solution at the concentrations specified.

Data set [2] has as its system virally expressed BLV envelope (BLV-infected FLK cells). Particulars: chronically BLV infected FLK effector cells + HeLa target cells; result in words (Figure 3C).
Description: Briefly, HeLa cells for use as effector cells were transfected with the envelope expression vector pHTE-1 or with equal amounts of pCMV-BLVenv-RRE and pRSV-Rev using the Genejuice™ transfection reagent (Novagen) in accordance with the manufacturer's instructions. 24 h later, 3 × 10^5 effector cells were added to 7 × 10^5 untransfected HeLa target cells in six-well dishes (Nunc). Where appropriate, the co-culture was incubated in the presence of peptides at the concentrations specified. To assess the ability of the peptides to inhibit fusion induced by virally expressed BLV envelope, 2 × 10^5 BLV-infected FLK cells were used as effectors and added to 8 × 10^5 uninfected HeLa cells. After incubation at 37°C for 16 h, cells were washed twice with PBS and fixed in PBS + 3% paraformaldehyde. Assays were performed in triplicate and the number of syncytia (defined as multinucleated cells with 4 or more nuclei) from 10 low-power fields (LPF) per replicate was scored by light microscopy; some assays were stained using Giemsa. A syncytium formation value of 100% is defined as the number of syncytia formed in the absence of peptide but in the presence of 1.5% DMSO.
[3] abbreviates: result in words, concentration not given (Figures 3B, 4A, 4C).
Setting [4] is: up to 20 μM, result in words (Figure 4D).

SMILES strings stand for the structures. Values after ≈ are worked out from the molar mass of the structure shown. Where a SMILES comes first, the peptide text is derived from it. Where only a bound is given, the exact number is not on record here.

T1 sequence (P51519 302-515): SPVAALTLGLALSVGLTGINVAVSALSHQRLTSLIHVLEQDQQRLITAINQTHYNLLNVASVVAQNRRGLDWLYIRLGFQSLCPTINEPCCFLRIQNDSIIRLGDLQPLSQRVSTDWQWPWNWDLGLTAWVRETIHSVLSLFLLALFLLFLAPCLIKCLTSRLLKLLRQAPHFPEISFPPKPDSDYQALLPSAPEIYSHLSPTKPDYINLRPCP

In the case of `CC[C@H](C)[C@H](NC(=O)[C@H](CO)NC(C)=O)C(=O)N[C@H](C(=O)N[C@@H](CCCNC(=N)N)C(=O)N[C@@H](CC(C)C)C(=O)NCC(=O)N[C@@H](CC(=O)O)C(=O)N[C@@H](CC(C)C)C(=O)N[C@@H](CCC(N)=O)C(=O)N1CCC[C@H]1C(=O)N[C@@H](CC(C)C)C(=O)N[C@@H](CO)C(=O)N[C@@H](CCC(N)=O)C(=O)N[C@@H](CCCNC(=N)N)C(=O)N[C@H](C(=O)N[C@@H](CO)C(=O)N[C@H](C(=O)N[C@@H](CC(=O)O)C(=O)N[C@@H](Cc1c[nH]c2ccccc12)C(=O)N[C@@H](CCC(N)=O)C(N)=O)[C@@H](C)O)C(C)C)[C@@H](C)CC` [P^BLV-ΔN] (Ac-SIIRLGDLQPLSQRVSTDWQ-NH2), the “Inhibition of BLV Env-induced membrane fusion” value on BLV envelope (setting [3]) is “lacked detectable inhibitory activity”. For the same compound, the kinetic solubility at 1 h in data set [1] was more than 90 µM.
Take `CC[C@H](C)[C@H](NC(=O)[C@H](CCCNC(=N)N)NC(=O)[C@H](CC(C)C)NC(=O)[C@H](Cc1ccccc1)NC(=O)[C@H](CS)NC(=O)[C@H](CS)NC(C)=O)C(=O)N[C@@H](CCC(N)=O)C(=O)N[C@@H](CC(N)=O)C(=O)N[C@@H](CC(=O)O)C(=O)N[C@@H](CO)C(=O)N[C@H](C(=O)N[C@H](C(=O)N[C@@H](CCCNC(=N)N)C(=O)N[C@@H](CC(C)C)C(=O)NCC(=O)N[C@@H](CC(=O)O)C(=O)N[C@@H](CC(C)C)C(=O)N[C@@H](CCC(N)=O)C(=O)N1CCC[C@H]1C(=O)N[C@@H](CC(C)C)C(N)=O)[C@@H](C)CC)[C@@H](C)CC` [P^BLV-ΔC] (Ac-CCFLRIQNDSIIRLGDLQPL-NH2): the “Inhibition of BLV Env-induced membrane fusion” value at BLV envelope (setting [3]) was “lacked detectable inhibitory activity”. In data set [1], this compound had a kinetic solubility at 1 h of more than 90 µM.
Turning to `CC[C@H](C)[C@H](NC(=O)[C@H](CC(C)C)NC(=O)[C@H](CO)NC(=O)[C@H](Cc1c[nH]cn1)NC(=O)[C@@H](NC(=O)[C@H](CC(C)C)NC(=O)[C@H](CC(C)C)NC(=O)[C@H](CO)NC(=O)[C@@H](NC(=O)[C@H](Cc1ccc(O)cc1)NC(=O)[C@H](CC(N)=O)NC(=O)[C@H](CC(N)=O)NC(=O)[C@@H](NC(=O)[C@H](CCC(=O)O)NC(=O)[C@H](CCCNC(=N)N)NC(=O)[C@H](CC(=O)O)NC(=O)[C@H](Cc1c[nH]c2ccccc12)NC(=O)[C@H](CCC(=O)O)NC(=O)[C@H](CCSC)NC(=O)[C@H](Cc1c[nH]c2ccccc12)NC(=O)CNC(C)=O)[C@@H](C)CC)[C@@H](C)O)[C@@H](C)CC)C(=O)N[C@@H](CCC(=O)O)C(=O)N[C@@H](CCC(=O)O)C(=O)N[C@@H](CO)C(=O)N[C@@H](CCC(N)=O)C(=O)N[C@@H](CC(N)=O)C(=O)N[C@@H](CCC(N)=O)C(=O)N[C@@H](CCC(N)=O)C(=O)N[C@@H](CCC(=O)O)C(=O)N[C@@H](CCCCN)C(=O)N[C@@H](CC(N)=O)C(=O)N[C@@H](CCC(=O)O)C(=O)N[C@@H](CCC(N)=O)C(=O)N[C@@H](CCC(=O)O)C(=O)N[C@@H](CC(C)C)C(=O)N[C@@H](CC(C)C)C(N)=O` [Peptide C34, reference compound] (Ac-GWMEWDREINNYTSLLIHSLIEESQNQQEKNEQELL-NH2), the “Inhibition of BLV Env-induced membrane fusion” value at BLV envelope (setting [3]) is recorded as “did not interfere”. This compound yielded a kinetic solubility at 1 h in data set [1] of more than 90 µM.
Take `CC[C@H](C)[C@H](NC(=O)[C@H](CCCNC(=N)N)NC(=O)[C@H](C)NC(=O)[C@H](Cc1ccccc1)NC(=O)[C@H](CS)NC(=O)[C@H](CS)NC(C)=O)C(=O)N[C@@H](CCC(N)=O)C(=O)N[C@@H](CC(N)=O)C(=O)N[C@@H](CC(=O)O)C(=O)N[C@@H](CO)C(=O)N[C@H](C(=O)N[C@H](C(=O)N[C@@H](CCCNC(=N)N)C(=O)N[C@@H](C)C(=O)NCC(=O)N[C@@H](CC(=O)O)C(=O)N[C@@H](C)C(=O)N[C@@H](CCC(N)=O)C(=O)N1CCC[C@H]1C(=O)N[C@@H](C)C(=O)N[C@@H](CO)C(=O)N[C@@H](CCC(N)=O)C(=O)N[C@@H](CCCNC(=N)N)C(=O)N[C@H](C(=O)N[C@@H](CO)C(=O)N[C@H](C(=O)N[C@@H](CC(=O)O)C(=O)N[C@@H](Cc1c[nH]c2ccccc12)C(=O)N[C@@H](CCC(N)=O)C(N)=O)[C@@H](C)O)C(C)C)[C@@H](C)CC)[C@@H](C)CC` [P^BLV-L/A] (Ac-CCFARIQNDSIIRAGDAQPASQRVSTDWQ-NH2): the “Inhibition of BLV Env-induced membrane fusion” value at BLV envelope (setting [4]) was “did not exhibit any discernible inhibition”. Also, the solubility (kinetic) at 1 h in data set [1] came out at 45 µM (≈ 148 µg/mL).
For `CC[C@H](C)[C@H](NC(=O)[C@H](CO)NC(=O)[C@@H](NC(=O)[C@H](Cc1c[nH]cn1)NC(=O)[C@H](CO)NC(=O)[C@H](CC(N)=O)NC(=O)[C@@H](NC(=O)[C@@H](NC(=O)[C@H](CC(N)=O)NC(=O)[C@H](C)NC(=O)[C@H](Cc1ccccc1)NC(=O)[C@H](CS)NC(=O)[C@H](CS)NC(C)=O)[C@@H](C)CC)[C@@H](C)O)C(C)C)C(=O)N[C@@H](C)C(=O)N[C@@H](CCC(N)=O)C(=O)N[C@@H](CCC(=O)O)C(=O)N[C@@H](CCCNC(=N)N)C(=O)N1CCC[C@H]1C(=O)N1CCC[C@H]1C(=O)N[C@@H](C)C(=O)N[C@@H](CCC(=O)O)C(=O)N[C@@H](CC(N)=O)C(=O)N[C@@H](CCCNC(=N)N)C(=O)N[C@H](C(=O)N[C@@H](C)C(=O)N[C@H](C(=O)NCC(=O)N[C@@H](Cc1c[nH]c2ccccc12)C(=O)NCC(=O)N[C@@H](C)C(N)=O)[C@@H](C)O)C(C)C` [P^cr-400 L/A, reference compound] (Ac-CCFANITNSHVSIAQERPPAENRVATGWGA-NH2), the “Inhibition of BLV Env-induced membrane fusion” value on BLV envelope (setting [3]) is recorded as “did not interfere”. This compound also gave a kinetic solubility at 1 h in data set [1] of 45 µM (≈ 146 µg/mL).
Consider `CC[C@H](C)[C@H](NC(=O)[C@H](CO)NC(=O)[C@@H](NC(=O)[C@H](Cc1c[nH]cn1)NC(=O)[C@H](CO)NC(=O)[C@H](CC(N)=O)NC(=O)[C@@H](NC(=O)[C@@H](NC(=O)[C@H](CC(N)=O)NC(=O)[C@H](CC(C)C)NC(=O)[C@H](Cc1ccccc1)NC(=O)[C@H](CS)NC(=O)[C@H](CS)NC(C)=O)[C@@H](C)CC)[C@@H](C)O)C(C)C)C(=O)N[C@@H](CC(C)C)C(=O)N[C@@H](CCC(N)=O)C(=O)N[C@@H](CCC(=O)O)C(=O)N[C@@H](CCCNC(=N)N)C(=O)N1CCC[C@H]1C(=O)N1CCC[C@H]1C(=O)N[C@@H](CC(C)C)C(=O)N[C@@H](CCC(=O)O)C(=O)N[C@@H](CC(N)=O)C(=O)N[C@@H](CCCNC(=N)N)C(=O)N[C@H](C(=O)N[C@@H](CC(C)C)C(=O)N[C@H](C(=O)NCC(=O)N[C@@H](Cc1c[nH]c2ccccc12)C(=O)NCC(=O)N[C@@H](CC(C)C)C(N)=O)[C@@H](C)O)C(C)C` [P^cr-400, reference compound] (Ac-CCFLNITNSHVSILQERPPLENRVLTGWGL-NH2), for which, on BLV envelope (concentrations up to 15 μM and above, result in words), the “Inhibition of membrane fusion induced by BLV envelope” value is “failed to inhibit”. Moreover, in data set [2], the “Inhibition of membrane fusion induced by virally expressed BLV envelope” value was “did not block”. In data set [1], the solubility (kinetic) at 1 h was more than 90 µM.
`CC[C@H](C)[C@H](NC(=O)[C@H](CCCNC(=N)N)NC(=O)[C@H](CC(C)C)NC(C)=O)C(=O)N[C@@H](CCC(N)=O)C(=O)N[C@@H](CC(N)=O)C(=O)N[C@@H](CC(=O)O)C(=O)N[C@@H](CO)C(=O)N[C@H](C(=O)N[C@H](C(=O)N[C@@H](CCCNC(=N)N)C(=O)N[C@@H](CC(C)C)C(=O)NCC(=O)N[C@@H](CC(=O)O)C(=O)N[C@@H](CC(C)C)C(=O)N[C@@H](CCC(N)=O)C(=O)N1CCC[C@H]1C(=O)N[C@@H](CC(C)C)C(=O)N[C@@H](CO)C(=O)N[C@@H](CCC(N)=O)C(=O)N[C@@H](CCCNC(=N)N)C(=O)N[C@H](C(=O)N[C@@H](CO)C(=O)N[C@H](C(=O)N[C@@H](CC(=O)O)C(=O)N[C@@H](Cc1c[nH]c2ccccc12)C(=O)N[C@@H](CCC(N)=O)C(N)=O)[C@@H](C)O)C(C)C)[C@@H](C)CC)[C@@H](C)CC` [P^BLV-ΔCCF] (Ac-LRIQNDSIIRLGDLQPLSQRVSTDWQ-NH2): the inhibition at 30 µM on BLV envelope (HeLa, read-out: Inhibition of syncytium formation) was 40%. In addition, the “Inhibition of BLV Env-induced membrane fusion” value on BLV envelope (peptide concentrations below 11 μM, where the peptide is soluble, result in words) was “fails to inhibit membrane fusion”. For the same compound, the solubility (kinetic) at 1 h in data set [1] worked out at 11.2 µM (≈ 34.8 µg/mL).
`CC[C@H](C)[C@H](NC(=O)[C@H](CCCNC(=N)N)NC(=O)[C@H](CC(C)C)NC(=O)[C@H](Cc1ccccc1)NC(=O)[C@H](CS)NC(=O)[C@H](CS)NC(C)=O)C(=O)N[C@@H](CCC(N)=O)C(=O)N[C@@H](CC(N)=O)C(=O)N[C@@H](CC(=O)O)C(=O)N[C@@H](CO)C(=O)N[C@H](C(=O)N[C@H](C(=O)N[C@@H](CCCNC(=N)N)C(=O)N[C@@H](C)C(=O)NCC(=O)N[C@@H](CC(=O)O)C(=O)N[C@@H](CC(C)C)C(=O)N[C@@H](CCC(N)=O)C(=O)N1CCC[C@H]1C(=O)N[C@@H](C)C(=O)N[C@@H](CO)C(=O)N[C@@H](CCC(N)=O)C(=O)N[C@@H](CCCNC(=N)N)C(=O)N[C@H](C(=O)N[C@@H](CO)C(=O)N[C@H](C(=O)N[C@@H](CC(=O)O)C(=O)N[C@@H](Cc1c[nH]c2ccccc12)C(=O)N[C@@H](CCC(N)=O)C(N)=O)[C@@H](C)O)C(C)C)[C@@H](C)CC)[C@@H](C)CC` [P^BLV-L404/410A] (Ac-CCFLRIQNDSIIRAGDLQPASQRVSTDWQ-NH2): at BLV envelope (setting [4]), the “Inhibition of BLV Env-induced membrane fusion” value is reported as “failed to display any fusion-blocking activity”. In addition, the kinetic solubility at 1 h in data set [1] was more than 90 µM.
